Assay results taken from patent publication US20250163119A1, “COMPOUNDS FOR THE TREATMENT OF DIABETES OR OBESITY” (Eli Lilly and Company, priority 2023, published 2025).
“And” between values parts separate entries of the source, which are not always exact repeats. Identical values can stand only once. *1 amine or outer side, *2 acyl side, *3 side chain or, on linkers, in order; H or OH if unused. Side-chain parts run from the residue outwards. [ ]: non-standard residue; d: D form. The star is where a group is joined. C20 diacid = O=C(O)CCCCCCCCCCCCCCCCCCC(=O)*; γGlu = O=C(O)[C@H](CCC(=O)[*:2])N[*:1]; εLys = N[C@@H](CCCCN[*:1])C(=O)[*:2]; αMeL = CC(C)C[C@](C)(N)C(=O)O; AEEA = NCCOCCOCC(=O)O; Aib = CC(C)(N)C(=O)O

What was measured:
[1] = system: MHC-II presented peptides on human dendritic cells; experiment: MAPPS assay (MHC-Associated Peptide Proteomics); type: cell-based
Outline: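 CD14+ monocytes from healthy donor PBMCs were differentiated to immature DCs with IL-4/GM-CSF, exposed to test molecules on day 4 and matured with LPS on day 5. On day 6, MHC-II complexes were immunoprecipitated and eluted peptides identified by mass spectrometry; value is percentage of donors presenting peptides from each region.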

CD4+ T cells = experiment: T cell proliferation assay; type: cell-based, human; details: responding donors / donors tested
Procedure: This assay assessed the ability of tested antibodies or tested MAPPS peptides to activate CD4+ T cells by inducing cellular proliferation. CD8+ T cell depleted PBMC's were prepared and labeled with CFSE. Each sample was tested with media control, keyhole limpet haemocyanin (KLH; positive clinical benchmark control), tested antibodies, or tested MAPPS peptides. Cultures were incubated for 7 days. On day 7, samples were analyzed by flow cytometry.

[2] = Pharmacokinetics in Sprague Dawley rats, single subcutaneous or intravenous dose (incl. 10, 30, 100 nmol/kg dose response); type: in vivo; details: for Tmax: read-out: Tmax
[3] = Pharmacokinetics in Yucatan mini-pigs, single subcutaneous or intravenous dose; type: in vivo; details: for Tmax: read-out: Tmax
Outline: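 Male mini-pigs received one SC or IV dose (19 or 99 nmol/kg) in 40 mM Tris-HCl 5% D-mannitol, pH 8. Blood sampled 0.083 (IV only) to 504 h postdose. Plasma levels measured by LC/MS after extraction and SPE, Orbitrap detection.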

[4] = dose response, single subcutaneous dose 10 nmol/kg, male Sprague Dawley rats, individual animal
[5] = dose response, single subcutaneous dose 30 nmol/kg, male Sprague Dawley rats, individual animal
[6] = dose response, single subcutaneous dose 100 nmol/kg, male Sprague Dawley rats, individual animal
[7] = male Sprague Dawley rats, single intravenous dose 187 nmol/kg, individual animal
[8] = male, Sprague Dawley, rat, plasma, iv, 187 nmol/kg, single intravenous dose 187 nmol/kg, Mean
[9] = male, Sprague Dawley, rat, plasma, sc, 10 nmol/kg, dose response, single subcutaneous dose 10 nmol/kg, individual animal
[10] = male, Sprague Dawley, rat, plasma, sc, 10 nmol/kg, dose response, single subcutaneous dose 10 nmol/kg, mean
[11] = male, Sprague Dawley, rat, plasma, sc, 30 nmol/kg, dose response, single subcutaneous dose 30 nmol/kg, individual animal
[12] = male, Sprague Dawley, rat, plasma, sc, 30 nmol/kg, dose response, single subcutaneous dose 30 nmol/kg, mean
[13] = male, Sprague Dawley, rat, plasma, sc, 100 nmol/kg, dose response, single subcutaneous dose 100 nmol/kg, individual animal
[14] = male, Sprague Dawley, rat, plasma, sc, 100 nmol/kg, dose response, single subcutaneous dose 100 nmol/kg, mean
[15] = male, Sprague Dawley, rat, plasma, sc, 187 nmol/kg, single subcutaneous dose 187 nmol/kg, individual animal
[16] = male, Sprague Dawley, rat, plasma, sc, 187 nmol/kg, single subcutaneous dose 187 nmol/kg, mean
[17] = single subcutaneous dose 187 nmol/kg, male Sprague Dawley rats, individual animal
[18] = male Yucatan pigs, single subcutaneous dose 19 nmol/kg, individual animal
[19] = male, Yucatan mini-pig, minipig, plasma, iv, 19 nmol/kg, single intravenous dose 19 nmol/kg, individual animal
[20] = male, Yucatan mini-pig, minipig, plasma, iv, 19 nmol/kg, single intravenous dose 19 nmol/kg, mean
[21] = male, Yucatan mini-pig, minipig, plasma, sc, 19 nmol/kg, single subcutaneous dose 19 nmol/kg, Mean
[22] = male, Yucatan mini-pig, minipig, plasma, sc, 19 nmol/kg, single subcutaneous dose 19 nmol/kg, individual animal
[23] = single intravenous dose 19 nmol/kg, male Yucatan pigs, individual animal

Q: For “Ac-GSPSIVTS[αMeL]DVPT[Aib][αMeL]LQKILEQERAEKARQQAK([γGlu-AEEA-εLys-C20 diacid])EAAEILAQV-NH2 [SEQ ID NO: 1, Ac-GSPSIVTS αMeL DVPT Aib αMeL LQKILEQERAEKARQQAK(γE-(2-[2-(2-Amino-ethoxy)-ethoxy]-acetyl)-ϵK-CO-(CH2)18-CO2H)EAAEILAQV-NH2]”, which “MAPPS Assay >10 donors with diverse MHC” value ([1]; donors displaying MHC-II peptides / donors tested) is on record?
A: 3/20

Q: What about the “peptides displayed on MHC-II complexes” value ([1]; human dendritic cells from normal donors) of the same substance?
A: at least one peptide cluster on MHC-II complexes in a subset of donors

Q: And the “immunogenicity compared with SEQ ID NO:54” value ([1]; in the MAPPs assay and/or the T cell proliferation assay)?
A: substantial improvements in immunogenicity over a compound comprising SEQ ID NO:54

Q: What about the “MAPPS Assay >10 donors with diverse MHC” value ([1]; percentage of donors displaying MHC-II peptides) of the same substance?
A: 15%

Q: What about the “T Cell Proliferation Assay: protein 7-10 donors with diverse MHC” value (CD4+ T cells) of the same substance?
A: 0/9

Q: And the AUC0-inf [2, 4]?
A: 2.07 µM·h and 1.86 µM·h and 2.21 µM·h

Q: And the CL/F [2, 4]?
A: 6.10 mL/h/kg and 4.63 mL/h/kg

Q: And the Cmax [2, 4]?
A: 37.7 nM and 26.4 nM and 38.5 nM

Q: And the T1/2 [2, 4]?
A: 41.7 h and 31.1 h

Q: What about the AUC0-inf [2, 5] of the same substance?
A: 6.42 µM·h and 6.92 µM·h and 7.69 µM·h

Q: What about the CL/F [2, 5] of the same substance?
A: 4.55 mL/h/kg and 4.19 mL/h/kg

Q: And the Cmax [2, 5]?
A: 102 nM and 110 nM and 104 nM

Q: And the T1/2 [2, 5]?
A: 37.1 h and 36.1 h

Q: And the AUC0-inf [2, 6]?
A: 18.8 µM·h and 21.1 µM·h and 20.7 µM·h

Q: And the CL/F [2, 6]?
A: 4.86 mL/h/kg and 4.91 mL/h/kg

Q: What about the Cmax [2, 6] of the same substance?
A: 348 nM and 332 nM and 321 nM

Q: And the T1/2 [2, 6]?
A: 26.0 h and 24.6 h

Q: And the “AUC0-inf” value [2, 7]?
A: 111 µM·h and 91.9 µM·h and 77.3 µM·h

Q: And the “C0” value [2, 7]?
A: 5970 nM and 6950 nM and 2400 nM

Q: What about the “CL” value [2, 7] of the same substance?
A: 2.04 mL/h/kg and 2.42 mL/h/kg

Q: And the “T1/2” value [2, 7]?
A: 47.5 h and 23.2 h and 31.0 h

Q: What about the clearance [2, 8] of the same substance?
A: 2.05 mL/h/kg

Q: What about the half-life [2, 8] of the same substance?
A: 33.9 h

Q: What about the clearance ([2]; male, Sprague Dawley, rat, plasma, iv, 187 nmol/kg, single intravenous dose 187 nmol/kg, individual animal) of the same substance?
A: 1.69 mL/h/kg

Q: What about the half-life [2, 9] of the same substance?
A: 26 h

Q: What about the CL/F ([2]; male, Sprague Dawley, rat, plasma, sc, 10 nmol/kg, dose response, single subcutaneous dose 10 nmol/kg, individual animal, read-out: CL/F (converted)) of the same substance?
A: 5.1 mL/h/kg

Q: And the Tmax [2, 9]?
A: 24 h

Q: And the half-life [2, 10]?
A: 32.9 h

Q: What about the CL/F ([2]; male, Sprague Dawley, rat, plasma, sc, 10 nmol/kg, dose response, single subcutaneous dose 10 nmol/kg, mean, read-out: CL/F (converted)) of the same substance?
A: 5.28 mL/h/kg

Q: And the Tmax [2, 10]?
A: 24 h

Q: And the half-life [2, 11]?
A: 31.5 h

Q: What about the CL/F ([2]; male, Sprague Dawley, rat, plasma, sc, 30 nmol/kg, dose response, single subcutaneous dose 30 nmol/kg, individual animal, read-out: CL/F (converted)) of the same substance?
A: 4.8 mL/h/kg

Q: And the Tmax [2, 11]?
A: 24 h

Q: What about the half-life [2, 12] of the same substance?
A: 34.9 h

Q: And the CL/F ([2]; male, Sprague Dawley, rat, plasma, sc, 30 nmol/kg, dose response, single subcutaneous dose 30 nmol/kg, mean, read-out: CL/F (converted))?
A: 4.51 mL/h/kg

Q: And the Tmax [2, 12]?
A: 32 h

Q: What about the half-life [2, 13] of the same substance?
A: 30.8 h

Q: And the CL/F ([2]; male, Sprague Dawley, rat, plasma, sc, 100 nmol/kg, dose response, single subcutaneous dose 100 nmol/kg, individual animal, read-out: CL/F (converted))?
A: 5.46 mL/h/kg

Q: And the Tmax [2, 13]?
A: 24 h

Q: And the half-life [2, 14]?
A: 27.1 h

Q: And the CL/F ([2]; male, Sprague Dawley, rat, plasma, sc, 100 nmol/kg, dose response, single subcutaneous dose 100 nmol/kg, mean, read-out: CL/F (converted))?
A: 5.08 mL/h/kg

Q: And the Tmax [2, 14]?
A: 24 h

Q: And the half-life [2, 15]?
A: 37.7 h

Q: And the CL/F ([2]; male, Sprague Dawley, rat, plasma, sc, 187 nmol/kg, single subcutaneous dose 187 nmol/kg, individual animal, read-out: CL/F (converted))?
A: 3.67 mL/h/kg

Q: And the Tmax [2, 15]?
A: 24 h

Q: What about the half-life [2, 16] of the same substance?
A: 35.7 h

Q: What about the CL/F ([2]; male, Sprague Dawley, rat, plasma, sc, 187 nmol/kg, single subcutaneous dose 187 nmol/kg, mean, read-out: CL/F (converted)) of the same substance?
A: 4.07 mL/h/kg

Q: And the Tmax [2, 16]?
A: 24 h

Q: And the AUC0-inf ([2]; rat, plasma, sc, dose response, single subcutaneous dose 10 nmol/kg, male Sprague Dawley rats, mean, read-out: AUC0-inf)?
A: 2.05 µM·h

Q: What about the Cmax ([2]; rat, plasma, sc, dose response, single subcutaneous dose 10 nmol/kg, male Sprague Dawley rats, mean, read-out: Cmax) of the same substance?
A: 34.2 nM

Q: What about the AUC0-inf ([2]; rat, plasma, sc, dose response, single subcutaneous dose 30 nmol/kg, male Sprague Dawley rats, mean, read-out: AUC0-inf) of the same substance?
A: 7.01 µM·h

Q: What about the Cmax ([2]; rat, plasma, sc, dose response, single subcutaneous dose 30 nmol/kg, male Sprague Dawley rats, mean, read-out: Cmax) of the same substance?
A: 105 nM

Q: What about the AUC0-inf ([2]; rat, plasma, sc, dose response, single subcutaneous dose 100 nmol/kg, male Sprague Dawley rats, mean, read-out: AUC0-inf) of the same substance?
A: 20.2 µM·h

Q: And the Cmax ([2]; rat, plasma, sc, dose response, single subcutaneous dose 100 nmol/kg, male Sprague Dawley rats, mean, read-out: Cmax)?
A: 334 nM

Q: And the AUC0-inf ([2]; rat, plasma, sc, single subcutaneous dose 187 nmol/kg, male Sprague Dawley rats, mean, read-out: AUC0-inf)?
A: 49 µM·h

Q: And the Cmax ([2]; rat, plasma, sc, single subcutaneous dose 187 nmol/kg, male Sprague Dawley rats, mean, read-out: Cmax)?
A: 657 nM

Q: And the AUC0-inf ([2]; rat, plasma, male Sprague Dawley rats, single intravenous dose 187 nmol/kg, Mean, read-out: AUC0-inf)?
A: 93.4 µM·h

Q: And the C0 ([2]; rat, plasma, male Sprague Dawley rats, single intravenous dose 187 nmol/kg, Mean, read-out: C0)?
A: 5110 nM

Q: And the AUC0-inf [2, 17]?
A: 53.9 µM·h and 41.2 µM·h and 51.8 µM·h

Q: What about the CL/F [2, 17] of the same substance?
A: 4.77 mL/h/kg and 3.77 mL/h/kg

Q: What about the Cmax [2, 17] of the same substance?
A: 804 nM and 511 nM and 657 nM

Q: What about the T1/2 [2, 17] of the same substance?
A: 38.2 h and 31.2 h

Q: What about the AUC0-inf ([3]; Yucatan mini-pig, minipig, plasma, sc, male Yucatan pigs, single subcutaneous dose 19 nmol/kg, Mean, read-out: AUC0-inf) of the same substance?
A: 17.8 µM·h

Q: What about the Cmax ([3]; Yucatan mini-pig, minipig, plasma, sc, male Yucatan pigs, single subcutaneous dose 19 nmol/kg, Mean, read-out: Cmax) of the same substance?
A: 147 nM

Q: What about the “AUC0-inf” value [3, 18] of the same substance?
A: 22.4 µM·h and 13.1 µM·h

Q: And the “CL/F” value [3, 18]?
A: 1.46 mL/h/kg

Q: And the “Cmax” value [3, 18]?
A: 171 nM and 122 nM

Q: What about the “T1/2” value [3, 18] of the same substance?
A: 60.2 h

Q: And the clearance [3, 19]?
A: 0.583 mL/h/kg

Q: And the half-life [3, 19]?
A: 87 h

Q: And the clearance [3, 20]?
A: 0.755 mL/h/kg

Q: And the half-life [3, 20]?
A: 71.5 h

Q: What about the half-life [3, 21] of the same substance?
A: 75.9 h

Q: And the CL/F ([3]; male, Yucatan mini-pig, minipig, plasma, sc, 19 nmol/kg, single subcutaneous dose 19 nmol/kg, Mean, read-out: CL/F (converted))?
A: 1.15 mL/h/kg

Q: What about the Tmax [3, 21] of the same substance?
A: 6 h

Q: And the half-life [3, 22]?
A: 91.6 h

Q: What about the CL/F ([3]; male, Yucatan mini-pig, minipig, plasma, sc, 19 nmol/kg, single subcutaneous dose 19 nmol/kg, individual animal, read-out: CL/F (converted)) of the same substance?
A: 0.848 mL/h/kg

Q: What about the Tmax [3, 22] of the same substance?
A: 6 h

Q: And the AUC0-inf ([3]; minipig, plasma, single intravenous dose 19 nmol/kg, male Yucatan pigs, mean, read-out: AUC0-inf)?
A: 26.2 µM·h

Q: And the C0 ([3]; minipig, plasma, single intravenous dose 19 nmol/kg, male Yucatan pigs, mean, read-out: C0)?
A: 619 nM

Q: And the AUC0-inf [3, 23]?
A: 32.1 µM·h and 20.2 µM·h

Q: What about the C0 [3, 23] of the same substance?
A: 591 nM and 646 nM

Q: What about the CL [3, 23] of the same substance?
A: 0.927 mL/h/kg

Q: And the T1/2 [3, 23]?
A: 55.9 h
